Assay [1] is described as follows: Binding affinity to 5'-ATGACTCAT-3' AP-1 dsDNA (unknown origin) by isothermal titration calorimetry. In general terms: In ITC the heat of successive injections is recorded.
Assay [2] can be described thus: Binding affinity to 5'-ATGACGTCAT-3' ATF/CREB dsDNA (unknown origin) by isothermal titration calorimetry.
Assay [3] is described as follows: Binding affinity to 5'-GCGAGTAGAGCTTTTTGCTCTACTCGC-3' dsDNA (unknown origin) by tryptophan fluorescence spectroscopic analysis.
Assay [4] is described as follows: Binding affinity to 5'-GCGAGCACAGCTTTTTGCTGTGCTCGC-3' dsDNA (unknown origin) by ethidium bromide displacement assay.
Assay [5] is described as follows: Binding affinity to 5'-GCGAGCACAGCTTTTTGCTGTGCTCGC-3' dsDNA (unknown origin) by tryptophan fluorescence spectroscopic analysis.
The nature of assay [6]: Binding affinity to 5'-GCGAGTAGAGCTTTTTGCTCTACTCGC-3' dsDNA (unknown origin) by ethidium bromide displacement assay.

pKd: −log10 of the molar value. Activity calls are given as the source filed them. No cut-off for these calls is given here. Positions of bridges follow the written chain, without caps; N, C: chain ends. Non-standard residues stand in square brackets, D forms with d. Residues, ends and D or L forms follow the SMILES beside them. Chains are numbered I, II in the order given. Orn = NCCC[C@H](N)C(=O)O

Results on two compounds are retold here after ChEMBL document CHEMBL3774307, “Synthesis, Characterization, and DNA Binding Profile of a Macrocyclic β-Sheet Analogue of ARC Protein” (ACS Med Chem Lett, 2015).

Consider `CC(=O)N[C@@H](CC(=O)O)C(=O)N1CCC[C@H]1C(=O)N[C@@H](C)C(=O)N[C@@H](C)C(=O)N[C@@H](CC(C)C)C(=O)N[C@@H](CCCCN)C(=O)N[C@@H](CCCNC(=N)N)C(=O)N[C@@H](C)C(=O)N[C@@H](CCCNC(=N)N)C(=O)N[C@@H](CC(N)=O)C(=O)N[C@H](C(=O)N[C@@H](CCC(=O)O)C(=O)N[C@@H](C)C(=O)N[C@@H](C)C(=O)N[C@@H](CCCNC(=N)N)C(=O)N[C@@H](CCCNC(=N)N)C(=O)N[C@@H](CO)C(=O)N[C@@H](CCCNC(=N)N)C(=O)N[C@@H](C)C(=O)N[C@@H](CCCNC(=N)N)C(=O)N[C@@H](CCCCN)C(=O)N[C@@H](CC(C)C)C(=O)N[C@@H](CCC(N)=O)C(=O)N[C@@H](CCCNC(=N)N)C(=O)N[C@@H](CC(C)C)C(=O)N[C@@H](CCCCN)C(=O)N[C@@H](CCC(N)=O)C(N)=O)[C@@H](C)O` (Ac-DPAALKRARNTEAARRSRARKLQRLKQ-NH2), for which the pKd in assay [1] and in assay [2] was 4.70 in each case.
`CC(C)C[C@@H]1NC(=O)[C@H](CC(N)=O)NC(=O)[C@H](Cc2ccccc2)NC(=O)[C@H](CCC(N)=O)NC(=O)[C@H](CCCCN)NC(=O)[C@@H](N)CCCNC(=O)[C@H](Cc2c[nH]c3ccccc23)NC(=O)[C@H](CCCNC(=N)N)NC(=O)[C@H](CC(C)C)NC(=O)[C@H](CC(N)=O)NC(=O)[C@H](Cc2ccccc2)NC(=O)[C@H](CCC(N)=O)NC(=O)[C@H](CCCCN)NC(=O)[C@@H](N)CCCNC(=O)[C@H](Cc2c[nH]c3ccccc23)NC(=O)[C@H](CCCNC(=N)N)NC1=O` (I: H-[Orn]KQFNLRW / II: H-[Orn]KQFNLRW; amide I:1-II:C, I:C-II:1): the outcome in assay [3], in assay [4] and in assay [5] was Active. Moreover, in assay [6], the pKd – broadly, −log10 of the Kd, conventionally taken in molar units – was 5.68.
